Experimental data from ChEMBL document CHEMBL1126028, “Antiandrogenic steroidal sulfonyl heterocycles. Utility of electrostatic complementarity in defining bioisosteric sulfonyl heterocycles” (J Med Chem, 1992).

Key:
Androgen receptor [1] = biological target: T1, Androgen receptor (Rattus norvegicus, UniProt P15207); test: […] binding affinity for rat ventral prostate androgen receptor by displacement of [3H]R-1881; parameters: species or system Prostate gland
T1 sequence (P15207 whole entry): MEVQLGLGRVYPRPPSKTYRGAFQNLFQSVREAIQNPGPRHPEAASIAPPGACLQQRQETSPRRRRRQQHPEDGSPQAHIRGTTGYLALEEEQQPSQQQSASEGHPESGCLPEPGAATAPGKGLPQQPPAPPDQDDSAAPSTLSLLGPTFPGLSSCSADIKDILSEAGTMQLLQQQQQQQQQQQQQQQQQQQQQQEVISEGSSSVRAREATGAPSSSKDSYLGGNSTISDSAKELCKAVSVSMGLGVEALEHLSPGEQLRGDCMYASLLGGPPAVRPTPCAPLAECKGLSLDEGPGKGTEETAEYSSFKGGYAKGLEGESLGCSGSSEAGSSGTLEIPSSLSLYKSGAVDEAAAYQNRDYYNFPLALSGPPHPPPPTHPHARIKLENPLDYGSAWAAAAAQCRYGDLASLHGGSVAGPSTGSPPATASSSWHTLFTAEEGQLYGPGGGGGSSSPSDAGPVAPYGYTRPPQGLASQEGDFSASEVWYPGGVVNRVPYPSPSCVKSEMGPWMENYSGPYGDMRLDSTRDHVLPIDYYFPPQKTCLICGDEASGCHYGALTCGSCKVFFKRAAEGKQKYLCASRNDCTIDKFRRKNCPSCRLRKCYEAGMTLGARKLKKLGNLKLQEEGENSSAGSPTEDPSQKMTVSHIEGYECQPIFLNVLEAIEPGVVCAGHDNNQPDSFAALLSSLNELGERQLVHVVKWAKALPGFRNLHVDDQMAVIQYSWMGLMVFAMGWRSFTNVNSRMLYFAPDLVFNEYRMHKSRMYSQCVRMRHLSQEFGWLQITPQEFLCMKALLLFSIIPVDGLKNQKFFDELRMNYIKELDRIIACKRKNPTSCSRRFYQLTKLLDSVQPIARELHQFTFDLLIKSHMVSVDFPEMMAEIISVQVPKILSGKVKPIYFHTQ

[2] = biological target: T2, Androgen receptor (Rattus norvegicus) (UniProt P15207); test: […] relative binding affinity (1h/18h) as ratio of binding affinities for R1881 and compound against rat ventral prostate androgen receptor using [3H]- R1881 as radioligand; 0.26/0.04
T2 sequence (whole entry): T1 sequence (P15207 whole entry)

Androgen receptor [3] = biological target: T1, Androgen receptor
Description: In vivo binding affinity for rat ventral prostate androgen receptor by displacement of [3H]R-1881

[4] = biological target: T2, Androgen receptor (Rattus norvegicus); test: […] relative binding affinity (1h/18h) as ratio of binding affinities for R1881 and compound against rat ventral prostate androgen receptor using [3H]- R1881 as radioligand; <.01/<.01
[5] = biological target: T2, Androgen receptor (Rattus norvegicus); test: […] relative binding affinity (1h/18h) as ratio of binding affinities for R1881 and compound against rat ventral prostate androgen receptor using [3H]- R1881 as radioligand; <0.01/<0.01
[6] = biological target: T2, Androgen receptor (Rattus norvegicus); test: […] relative binding affinity (1h/18h) as ratio of binding affinities for R1881 and compound against rat ventral prostate androgen receptor using [3H]- R1881 as radioligand; 1.2/0.05

SMILES: C#C[C@]1(O)CCC2C3CC[C@H]4Cc5nc(S(C)(=O)=O)ncc5C[C@]4(C)C3CC[C@@]21C (some centres undefined)
- Ki (Androgen receptor [1]): 3 µM
- relative binding affinity (RBA) [2]: 0.26

SMILES: C#C[C@]1(O)CCC2C3CC[C@H]4Cc5sc(S(C)(=O)=O)cc5C[C@]4(C)C3CC[C@@]21C (some centres undefined)
- Ki (Androgen receptor [3]): > 29 µM
- relative binding affinity (RBA) [4]: < 0.01

SMILES: C#C[C@]1(O)CCC2C3CC[C@H]4Cc5nc(S(C)(=O)=O)sc5C[C@]4(C)C3CC[C@@]21C (some centres undefined)
- Ki (Androgen receptor [3]): 0.86 µM

SMILES: C#C[C@]1(O)CCC2C3CC[C@H]4Cc5cc(S(C)(=O)=O)oc5C[C@]4(C)C3CC[C@@]21C (some centres undefined)
- Ki (Androgen receptor [3]): > 29 µM
- relative binding affinity (RBA) [5]: < 0.01

SMILES: C#C[C@]1(O)CCC2C3CC[C@H]4Cc5oc(S(C)(=O)=O)nc5C[C@]4(C)C3CC[C@@]21C (some centres undefined)
- relative binding affinity (RBA) [6]: 1.2

SMILES: C#C[C@]1(O)CCC2C3CC[C@H]4Cc5oc(S(C)(=O)=O)cc5C[C@]4(C)C3CC[C@@]21C (some centres undefined)
- Ki (Androgen receptor [3]): 0.52 µM
